Read-outs that look alike come from different tables or passages of the source.
Assays:
[1] = tested on: breast cancer cell line MCF-7; experiment: IC50 values on breast cancer cell line MCF-7; assay type: cell-based; settings: Homo sapiens, MCF7, 72 h
From the text: From the activity evaluation data of the above-mentioned preliminary screen, it can be seen that the series of taxanes derivatives synthesized in the present invention have activity (although the activity of PCMI-43 is weakened). Afterward, most of the compounds are picked up from these derivatives to examine their IC50 values on breast cancer cell line MCF-7. Paclitaxel is used as the positive control drug. Experiments for each compound were independently repeated for three times and multiple holes were used in each experiment. The exposure time of drugs was 72 hours.

[2] = tested on: HeLa cervical cancer; experiment: MTT assay, proliferation inhibition; assay type: cell-based; settings: Homo sapiens, read-out: Proliferation inhibition rate
From the text: (§1) 1. Cytotoxicity Assay Using Human Tumor Cell Lines
(§2) Paclitaxel was used as the positive drug.

[3] = tested on: HCT 116 colon cancer; experiment: MTT assay, proliferation inhibition; assay type: cell-based; settings: Homo sapiens, read-out: Proliferation inhibition rate
From the text: as §1, §2

[4] = tested on: A549 non-small cell lung cancer; experiment: MTT assay, proliferation inhibition; assay type: cell-based; settings: Homo sapiens, read-out: Proliferation inhibition rate
From the text: as §1, §2

[5] = tested on: MCF-7 breast cancer; experiment: MTT assay, proliferation inhibition; assay type: cell-based; settings: Homo sapiens, MCF7, read-out: Proliferation inhibition rate
From the text: as §1, §2

[6] = tested on: A375 melanoma; experiment: MTT assay, proliferation inhibition; assay type: cell-based; settings: Homo sapiens, A-375, read-out: Proliferation inhibition rate
From the text: as §1, §2

[7] = tested on: LNCaP prostate cancer; experiment: MTT assay, proliferation inhibition; assay type: cell-based; settings: Homo sapiens, read-out: Proliferation inhibition rate
From the text: as §1, §2

[8] = tested on: MDA-MB-436 breast cancer; experiment: MTT assay, proliferation inhibition; assay type: cell-based; settings: Homo sapiens, read-out: Proliferation inhibition rate
From the text: as §1, §2

[9] = tested on: NCI-H460 non-small cell lung cancer; experiment: MTT assay, proliferation inhibition; assay type: cell-based; settings: Homo sapiens, read-out: Proliferation inhibition rate
From the text: as §1, §2

[10] = tested on: HT29 colon cancer; experiment: MTT assay, proliferation inhibition; assay type: cell-based; settings: Homo sapiens, HT-29, read-out: Proliferation inhibition rate
From the text: as §1, §2

[11] = tested on: A2780 ovarian cancer; experiment: MTT assay, proliferation inhibition; assay type: cell-based; settings: Homo sapiens, read-out: Proliferation inhibition rate
From the text: as §1, §2

[12] = tested on: HL60 leukemia; experiment: MTT assay, proliferation inhibition; assay type: cell-based; settings: Homo sapiens, HL-60, read-out: Proliferation inhibition rate
From the text: as §1, §2

[13] = MTT assay, proliferation inhibition; assay type: cell-based; settings: Homo sapiens, LN-18 gastric cancer, read-out: Proliferation inhibition rate
From the text: as §1, §2

[14] = tested on: BGC-823 gastric cancer; experiment: MTT assay, proliferation inhibition; assay type: cell-based; settings: Homo sapiens, read-out: Proliferation inhibition rate
From the text: as §1, §2

[15] = tested on: DU145 prostate cancer; experiment: MTT assay, proliferation inhibition; assay type: cell-based; settings: Homo sapiens, DU-145, read-out: Proliferation inhibition rate
From the text: as §1, §2

[16] = tested on: K562 leukemia; experiment: MTT assay, proliferation inhibition; assay type: cell-based; settings: Homo sapiens, read-out: Proliferation inhibition rate
From the text: as §1, §2

[17] = tested on: B16 melanoma; experiment: MTT assay, proliferation inhibition; assay type: cell-based; settings: read-out: Proliferation inhibition rate
From the text: as §1, §2

[18] = tested on: Caco-2 cell monolayer; experiment: Caco-2 cell monolayer membrane transport assay; settings: Caco-2 cell line (21 days)
From the text: (§3) Caco-2 Cell Monolayer Membrane Transport Assay
(§4) Human-derived colorectal adenocarcinoma cell line Caco-2 cell monolayer model was used to study the bidirectional transport of the target compounds from the apical (AP) side to the basolateral (BL) side and from BL side to AP side. HPLC was used for quantitative analysis to calculate transport parameters, apparent permeability coefficient (Papp) and the efflux ratio.

[19] = Caco-2 cell monolayer membrane transport assay; settings: human; for Papp A→B: Caco-2, Papp A-B; for recovery: Caco-2, Recovery rate in mass
From the text: as §3, §4

[20] = tested on: 16 cancer cell lines; experiment: Preliminary cytotoxicity evaluation on 16 cancer cell lines (MTT); assay type: cell-based, human; settings: preliminary screen at 1 μM, compared with paclitaxel
From the text: as §1, §2
In both cancer cell lines of A549 and B16, the cytotoxicity of the taxanes derivatives is slightly lower than that of the positive control drug.

[21] = in vitro; settings: human, Caco-2, Papp A-B, Mean
From the text: as §3, §4

[22] = reported value for paclitaxel; cited from earlier work
[23] = tested on: Caco-2 cell monolayer; settings: human
From the text: as §3, §4

[24] = bidirectional transport, Table 5
[25] = Mean, Caco-2, A-B, mean of two samples
[26] = Sample-01, Caco-2, A-B, Sample-01
[27] = Sample-02, Caco-2, A-B, Sample-02
[28] = Caco-2 cell line (21 days), bidirectional transport, Table 5

Row | SMILES | inhibition at 1 µM [2] | inhibition at 1 µM [3] | inhibition at 1 µM [4] | inhibition at 1 µM [5] | inhibition at 1 µM [6] | inhibition at 1 µM [7] | inhibition at 1 µM [8] | inhibition at 1 µM [9] | inhibition at 1 µM [10] | inhibition at 1 µM [11] | inhibition at 1 µM [12] | inhibition at 1 µM [13] | inhibition at 1 µM [14] | inhibition at 1 µM [15] | inhibition at 1 µM [16] | inhibition at 1 µM [17] | Papp A→B [19, 26] | Papp A→B [19, 27] | recovery [19, 25] | recovery [19, 26] | other results
1 | COC(=O)O[C@H]1C[C@H]2OC[C@@]2(OC(C)=O)[C@H]2[C@H](OC(=O)c3ccccc3)[C@]3(O)C[C@H](OC(=O)[C@H](O)[C@H](CC(C)C)NC(=O)OC(C)(C)C)C(C)=C([C@@H](OC)C(=O)[C@]12C)C3(C)C [PCMI-39] | 100% | 57.1% | 67.4% | 100% | 90.2% | 82.8% | 78.4% | 81.6% | 88.4% | 94.9% | 99.1% | 94.1% | 91.7% | 84.9% | 92.2% | 72.3% | 6.13 ×10⁻⁶ cm/s | 8.81 ×10⁻⁶ cm/s | 64.2% | 71.7% | IC50 ([1]; read-out: MCF-7(IC50, nM)): 2.81 ± 0.02 nM; Papp A-B [18, 24]: 7.16 10^−6 cm/s; Papp B-A [18, 24]: 36.37 10^−6 cm/s; Papp A→B [19, 25]: 7.47 ×10⁻⁶ cm/s; recovery [19, 27]: 56.7%
2 | CO[C@H]1C(=O)[C@]2(C)CC[C@H]3OC[C@@]3(OC(C)=O)[C@H]2[C@H](OC(=O)c2ccccc2)[C@]2(O)C[C@H](OC(=O)[C@H](O)[C@H](CC(C)C)NC(=O)OC(C)(C)C)C(C)=C1C2(C)C [PCMI-42] | 99.3% | 66.1% | 77.6% | 97.8% | 104% | 82.9% | 79.5% | 84.3% | 88.2% | 95.6% | 97.6% | 94.8% | 92.8% | 87% | 94.3% | 78.3% | 7.85 ×10⁻⁶ cm/s | 6.49 ×10⁻⁶ cm/s | 74.2% | 81% | IC50 ([1]; read-out: MCF-7(IC50, nM)): 3.06 ± 0.08 nM; efflux ratio ([18]; Papp B-A/Papp A-B): 5.12; Papp B-A [18, 24]: 38.57 10^−6 cm/s; Papp A→B [19, 28]: 7.54 ×10⁻⁶ cm/s; recovery [19, 27]: 67.3%
3 | CO[C@H]1C(=O)[C@]2(C)C=C[C@@H](O)[C@](CO)(OC(C)=O)[C@H]2[C@H](OC(=O)c2ccccc2)[C@]2(O)C[C@H](OC(=O)[C@H](O)[C@@H](NC(=O)c3ccccc3)c3ccccc3)C(C)=C1C2(C)C [PCMI-43] | 52% | 46.1% | 53.9% | 68.3% | 77.8% | 61.2% | 35.7% | 62.1% | 36.4% | 70% | 76.3% | 73.2% | 38.2% | 63.4% | 80.9% | 13.3% | 3.21 ×10⁻⁶ cm/s | 2.89 ×10⁻⁶ cm/s | 72% | 76.6% | cytotoxicity (in words) [20]: weakened; Papp A→B [19, 25]: 3.05 ×10⁻⁶ cm/s; recovery [19, 27]: 67.5%
4 | CO[C@H]1C(=O)[C@]2(C)C=C[C@@H](O)[C@](CO)(OC(C)=O)[C@H]2[C@H](OC(=O)c2ccccc2)[C@]2(O)C[C@H](OC(=O)[C@H](O)[C@@H](NC(=O)OC(C)(C)C)c3ccccc3)C(C)=C1C2(C)C [PCMI-44] | 99.3% | 67.1% | 75.9% | 95.2% | 93.9% | 86.9% | 82.7% | 85.2% | 88.3% | 95.6% | 96.3% | 89.8% | 90.8% | 89.2% | 94.4% | 75.3% | 5.28 ×10⁻⁶ cm/s | 6.39 ×10⁻⁶ cm/s | 95.8% | 85.7% | cytotoxicity (in words) [20]: remains good cytotoxicity; IC50 ([1]; read-out: MCF-7(IC50, nM)): 10.9 ± 0.16 nM; Papp B→A ([19]; Caco-2): 27.2 ×10⁻⁶ cm/s; efflux ratio ([19]; Caco-2): 4.76; Papp A→B [19, 28]: 5.72 ×10⁻⁶ cm/s; Papp A→B [19, 25]: 5.83 ×10⁻⁶ cm/s; recovery [19, 27]: 106%
5 | CC(=O)O[C@H]1C(=O)[C@@]2(C)[C@H]([C@H](OC(=O)c3ccccc3)[C@]3(O)C[C@H](OC(=O)[C@H](O)[C@@H](NC(=O)c4ccccc4)c4ccccc4)C(C)=C1C3(C)C)[C@]1(OC(C)=O)CO[C@@H]1C[C@@H]2O [Paclitaxel, reference compound] | 101% | 70.4% | 81.6% | 94.2% | 96.2% | 87.1% | 83.1% | 87.5% | 88.4% | 96.7% | 96.8% | 94.5% | 92.5% | 90.6% | 96.6% | 84% | – | – | – | – | IC50 ([1]; MCF-7, exposure 72 hours, mean±SD of three independent experiments, read-out: MCF-7(IC50)): ~7.05 nM; Papp A→B [21]: 0.97 ×10⁻⁶ cm/s; reported absolute oral bioavailability [22]: less than 5%; Papp A-B [23]: 0.97 10^−6 cm/s; Papp B-A [23]: 33.39 10^−6 cm/s; efflux ratio [23]: 34.38
